# In patent publication US20190133979A1, “METHOD FOR ENHANCING DELIVERY OF THERAPEUTIC DRUGS TO TREATMENT SITES” (Chang Gung University, priority 2013, published 2019):
# “Also recorded” adds a separate entry of the source.
# Legend:
# LN229 cells [1] = assay: Determination of cell-associated MNPs (MNPcell) in LN229 cells; type: cell-based, human; conditions: for effect on uptake of MNPs, in words: MNPs 100 μg/mL, 10 or 30 μM, 24 hrs, vs vehicle; for capability of enhancing cellular uptake of MNPs, in words / concentration as low as which cellular uptake of MNPs is significantly increased: FIG. 4; for capability of enhancing cellular uptake of MNPs, in words: LN-299 [sic] cells; for increase of cellular uptake of MNP: vs without compound; for increase of MNPcell / enhancement of MNPcell at 4° C.: LN229 cells; for enhancement of MNPcell at 4° C.: 30 μM, 2 h; for effect on cell-associated MNPs (MNPcell), in words: LN-229 cells, with or without magnetic field
# Experimental: (§1) LN229 cells, human glioma cells, were cultured in DMEM medium; whereas HeLa cells, human cervical cancer cells, were cultured in MEM medium. Both media were supplemented with 10% fetal bovine serum (FBS) and 1% penicillin/streptomycin/amphotericin B solution. The cells were maintained in a 37° C. incubator supplied with 5% CO2 and sub-cultured every 3 to 4 days.
# LN229 or HeLa cells were seeded and grown in 24-well plates. […] In some experiments, cells were equilibrated at 4° C. for 20 min, followed by an additional 2-h incubation with MNPs at 4° C. in the absence and presence of the magnet. A home-made magnetic plate with 24 pieces of cylindrical NdFeB magnet were used to provide a magnetic field of 3.4 kG at the center of each well. For the group without the magnet during incubation with MNPs, the magnetic plate was placed underneath the culture plates for 5 min after MNP administration to facilitate MNP sedimentation. The cells were then washed twice with phosphate-buffered saline (PBS) and trypsinized prior to colorimetric quantification. The cell pellet containing cell-associated MNPs (MNPcell) was treated with 10% hydrochloric acid at 55° C. for 4 h, followed by adding ammonium persulfate (1 mg/mL) and potassium thiocyanate solution (1 M). The amount of cell-associated iron was determined with VICTOR3 Multilabel Plate Reader (PerkinElmer, Waltham, Mass.) at OD490. A calibration curve was prepared under identical conditions.
# tumor cells = assay: Timing of EGCG and MNP addition, MNPcell in 5 study groups; type: cell-based
# Experimental: (§2) LN229 or HeLa cells were seeded and grown in 24-well plates. After attaining 80-90% confluence, the cells were exposed to MNPs (100 μg/mL) and phenolic compounds (10 or 30 μM) in the presence or absence of NdFeB magnet underneath the plate for 24 h. In some experiments, cells were equilibrated at 4° C. for 20 min, followed by an additional 2-h incubation with MNPs at 4° C. in the absence and presence of the magnet. A home-made magnetic plate with 24 pieces of cylindrical NdFeB magnet were used to provide a magnetic field of 3.4 kG at the center of each well. For the group without the magnet during incubation with MNPs, the magnetic plate was placed underneath the culture plates for 5 min after MNP administration to facilitate MNP sedimentation. The cells were then washed twice with phosphate-buffered saline (PBS) and trypsinized prior to colorimetric quantification. The cell pellet containing cell-associated MNPs (MNPcell) was treated with 10% hydrochloric acid at 55° C. for 4 h, followed by adding ammonium persulfate (1 mg/mL) and potassium thiocyanate solution (1 M). The amount of cell-associated iron was determined with VICTOR3 Multilabel Plate Reader (PerkinElmer, Waltham, Mass.) at OD490. A calibration curve was prepared under identical conditions.
# In this example, the timing for adding the present polyphenolic compound with MNPs to the tumor cells was investigated. To this purpose, 5 study groups were designed and respectively treated with the designated compounds, then the MNPcell in each group was determined. The concentrations of MNPs and epigallocatechin gallate (EGCG) or compound 12 used in this example were respectively 100 μg/mL and 10 μM. In Group I (the control group), cells were treated with MNPs (2 hrs). In Group 2, cells were first treated with EGCG (2 hrs), which was removed, and then with MNPs (2 hrs). In Group 3, cells were simultaneously treated with EGCG and MNPs for 2 hours. In Group 4, cells were first treated with EGCG (2 hrs), then with the combination of MNP and EGCG (2 hrs). […]
# HeLa cells = assay: Determination of cell-associated MNPs (MNPcell) in HeLa cells; type: cell-based, human; conditions: for increase of MNPcell: 10 μM; for effect on cell-associated MNPs (MNPcell), in words: with or without magnetic field
# Experimental: as §1, §2
# LN229 cells [2] = assay: Confocal microscopy of fluorescent CMX-MNP internalization; type: cell-based, human
# Experimental: LN229 cells were seeded onto poly-lysine coated coverslips 18 h before experiments. The cells were incubated with green fluorescent MNPs with carboxylmethyl-dextran coating (nano-screenMAG-CMX; 100 μg/mL) and methyl gallate (30 μM) at 37° C. for 2 h in the presence of NdFeB magnet underneath the culture plate. Cells were then washed twice with PBS and then incubated with Lysotracker® (0.125 μM) for 30 min for staining of lysosomes. The cells were than washed with PBS and fixed with 4% paraformaldehyde for 20 min at room temperature. The cells were counterstained with DAPI and imaged with a Zeiss LSM 510 Meta laser confocal microscope system equipped with a 100×/1.4 oil immersion objective lens. Image processing and analysis of fluorescent MNPs colocalized with cells was performed using Fiji Image J.
# [3] = 10 μM, magnetic field-free environment
smiles,measurement,setting,value
"CCCOC(=O)c1cc(O)c(O)c(O)c1 [Compound 3, Propyl Gallate]","effect on uptake of MNPs, in words",LN229 cells [1]; absence of magnet,effective in enhancing the uptake of MNPs
same,"effect on uptake of MNPs, in words",LN229 cells [1]; presence of magnet,effective in enhancing the uptake of MNPs
O=c1c(O)c(-c2ccc(O)c(O)c2)oc2cc(O)cc(O)c12 [quercetin],cellular uptake of MNP higher than without compound,"LN229 cells [1]; 20 μM, absence of magnetic field",5 times
same,"capability of enhancing cellular uptake of MNPs, in words",LN229 cells [1],possessed the capability of enhancing cellular uptake of MNPs; also recorded: enhanced cellular uptake of MNPs
same,"effect on uptake of MNP in the presence of magnet, in words",LN229 cells [1]; presence of magnet,more significant increase in the uptake of MNP via a concentration-dependent manner
"O=C(O)c1cc(O)cc(O)c1 [Compound 7, α-resorcylic acid]","effect on uptake of MNPs, in words",LN229 cells [1]; absence of magnet,none of them was effective
same,"effect on uptake of MNPs, in words",LN229 cells [1]; presence of magnet,none of them was effective
"O=C(O)/C=C/c1ccc(O)c(O)c1 [Compound 9, caffeic acid]","effect on uptake of MNPs, in words",LN229 cells [1]; presence of magnet,enhanced the uptake of MNPs in the presence of magnet
"NC(=O)c1cc(O)c(O)c(O)c1 [Compound 4, 3,4,5-trihydroxybenzamide]","effect on uptake of MNPs, in words",LN229 cells [1]; absence of magnet,effective in enhancing the uptake of MNPs
same,"effect on uptake of MNPs, in words",LN229 cells [1]; presence of magnet,effective in enhancing the uptake of MNPs
"O=C(O[C@@H]1Cc2c(O)cc(O)cc2O[C@@H]1c1cc(O)c(O)c(O)c1)c1cc(O)c(O)c(O)c1 [Compound 12, Epigallocatechin gallate]",increase of cellular uptake of MNP,"LN229 cells [1]; 10 μM, external magnetic field",16 times
same,increase of cellular uptake of MNP,LN229 cells [1]; [3],5.7 times
same,concentration as low as which cellular uptake of MNPs is significantly increased,LN229 cells [1],3 µM
same,"capability of enhancing cellular uptake of MNPs, in words",LN229 cells [1]; listed as EGCG,possessed the capability of enhancing cellular uptake of MNPs; also recorded: enhanced cellular uptake of MNPs
same,"uptake of MNPs, in words","tumor cells; Group 2: EGCG 10 μM 2 hrs, removed, then MNPs 100 μg/mL 2 hrs",no enhanced uptake of MNPs was found
same,"uptake of MNPs, in words","tumor cells; Group 3: EGCG 10 μM and MNPs 100 μg/mL simultaneously 2 hours, presence and absence of magnet",enhanced uptake of MNPs was achieved
same,"uptake of MNPs, in words","tumor cells; Groups 4 and 5: EGCG pre-treatment 2 or 4 hrs, then MNP and EGCG 2 hrs, vs Group 3",did not result in further increase in the cellular uptake of MNPs
"O=C(O)c1ccc(O)c(O)c1 [Compound 5, protocatechuic acid]","effect on uptake of MNPs, in words",LN229 cells [1]; presence of magnet,enhanced the uptake of MNPs in the presence of magnet
"O=C(O)CCc1ccc(O)c(O)c1 [Compound 10, Dihydrocaffeic Acid]","effect on uptake of MNPs, in words",LN229 cells [1]; presence of magnet,enhanced the uptake of MNPs in the presence of magnet
"COc1cc(/C=C/C(=O)O)ccc1O [Compound 11, ferulic acid]","effect on uptake of MNPs, in words",LN229 cells [1]; absence of magnet,none of them was effective
same,"effect on uptake of MNPs, in words",LN229 cells [1]; presence of magnet,none of them was effective
"O.O=C(O)c1cc(O)c(O)c(O)c1 [Compound 1, Gallic acid monohydrate]",increase of MNPcell,HeLa cells; absence of the magnet,1.8 fold
same,increase of MNPcell,HeLa cells; presence of the magnet,1.9 fold
same,"effect on cell-associated MNPs (MNPcell), in words",HeLa cells,concentration-dependent increase
same,increase of MNPcell,"LN229 cells [1]; 50 μM, absence of the magnet",5.4 fold
same,increase of MNPcell,"LN229 cells [1]; 50 μM, presence of the magnet",3.9 fold
same,enhancement of MNPcell at 4° C.,LN229 cells [1]; with the magnet,0.6 fold
same,enhancement of MNPcell at 4° C.,LN229 cells [1]; without magnet,1.9 fold
same,"effect on cell-associated MNPs (MNPcell), in words",LN229 cells [1],concentration-dependent increase
same,"effect on uptake of MNPs, in words",LN229 cells [1]; absence of magnet,effective in enhancing the uptake of MNPs
same,"effect on uptake of MNPs, in words",LN229 cells [1]; presence of magnet,effective in enhancing the uptake of MNPs
same,concentration as low as which a significant increase in LN229 cell-associated MNPs is induced,"LN229 cells [1]; compared to vehicle, with and without magnet",6 µM
"O=C(O[C@@H]1Cc2c(O)cc(O)cc2O[C@@H]1c1ccc(O)c(O)c1)c1cc(O)c(O)c(O)c1 [Compound 13, Epicatechin gallate]",increase of cellular uptake of MNP,"LN229 cells [1]; 10 μM, external magnetic field",5-6 times
same,increase of cellular uptake of MNP,LN229 cells [1]; [3],12 times
same,concentration as low as which cellular uptake of MNPs is significantly increased,LN229 cells [1],3 µM
same,"capability of enhancing cellular uptake of MNPs, in words",LN229 cells [1]; listed as ECG,possessed the capability of enhancing cellular uptake of MNPs; also recorded: enhanced cellular uptake of MNPs
"O=C(O)c1ccc(O)cc1 [Compound 6, p-hydroxybenzoic acid]","effect on uptake of MNPs, in words",LN229 cells [1]; absence of magnet,none of them was effective
same,"effect on uptake of MNPs, in words",LN229 cells [1]; presence of magnet,none of them was effective
"COC(=O)c1cc(O)c(O)c(O)c1 [Compound 2, Methyl Gallate]",increase of MNPcell,HeLa cells; absence of the magnet,0.6 fold
same,increase of MNPcell,HeLa cells; presence of the magnet,1.0 fold
same,"effect on cell-associated MNPs (MNPcell), in words",HeLa cells,concentration-dependent increase
same,"internalization of MNPs, in words","LN229 cells [2]; 30 μM, 2 h, CMX-MNP 100 μg/mL, compared to vehicle control",greatly increased internalization of MNPs
same,"overlap coefficient, Mander's coefficient, of MNP relative to lysosomes","LN229 cells [2]; in the presence of methyl gallate (n=8), vehicle 0.51±0.08",0.65±0.03
same,increase of MNPcell,"LN229 cells [1]; 10 μM, absence of the magnet",1.4 fold
same,increase of MNPcell,"LN229 cells [1]; 10 μM, magnet underneath cells",2.1 fold
same,increase of MNPcell,"LN229 cells [1]; 50 μM, absence of the magnet",4.5 fold
same,increase of MNPcell,"LN229 cells [1]; 50 μM, presence of the magnet",2.9 fold
same,enhancement of MNPcell at 4° C.,LN229 cells [1]; with the magnet,0.4 fold
same,enhancement of MNPcell at 4° C.,LN229 cells [1]; without magnet,1.4 fold
same,"effect on cell-associated MNPs (MNPcell), in words",LN229 cells [1]; listed as Methyl gallate,enhanced MNPcell in a concentration-dependent manner
same,"effect on cell-associated MNPs (MNPcell), in words",LN229 cells [1]; listed as methyl gallate,concentration-dependent increase
same,"effect on uptake of MNPs, in words",LN229 cells [1]; absence of magnet,effective in enhancing the uptake of MNPs
same,"effect on uptake of MNPs, in words",LN229 cells [1]; presence of magnet,effective in enhancing the uptake of MNPs
